Experimental data taken from PMC11828871, “Structural basis of anticancer drug recognition and amino acid transport by LAT1” (Nature Communications, 2025).
pIC50: −log10 of the molar value. One block for each compound: values may come before it.

What was measured:
[1] = molecular target: T1, LAT1 (Homo sapiens, UniProt Q01650); test: cryo-EM structure ([…] Å, occluded); cis inhibition and counterflow assays in oocytes
T1 construct: gene SLC7A5; LAT1–CD98hc in lipid nanodiscs with Fab170; with CD98hc (4F2hc; SLC3A2)
T1 sequence (Q01650 whole entry): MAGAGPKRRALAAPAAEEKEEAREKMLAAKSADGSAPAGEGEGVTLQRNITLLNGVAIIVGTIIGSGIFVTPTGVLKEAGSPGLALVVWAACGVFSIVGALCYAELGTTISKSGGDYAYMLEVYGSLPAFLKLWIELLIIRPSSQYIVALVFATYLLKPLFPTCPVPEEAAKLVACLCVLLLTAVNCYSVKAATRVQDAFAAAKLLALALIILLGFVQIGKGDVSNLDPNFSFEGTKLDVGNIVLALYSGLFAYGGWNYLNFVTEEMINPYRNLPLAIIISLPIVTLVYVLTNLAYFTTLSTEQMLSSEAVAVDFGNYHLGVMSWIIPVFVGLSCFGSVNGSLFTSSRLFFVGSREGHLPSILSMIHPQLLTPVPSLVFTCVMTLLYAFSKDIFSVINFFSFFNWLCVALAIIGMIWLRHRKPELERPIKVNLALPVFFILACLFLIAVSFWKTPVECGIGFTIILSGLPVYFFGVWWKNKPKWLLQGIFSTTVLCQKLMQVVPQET
T1 sequence (P08195 103-630 partner): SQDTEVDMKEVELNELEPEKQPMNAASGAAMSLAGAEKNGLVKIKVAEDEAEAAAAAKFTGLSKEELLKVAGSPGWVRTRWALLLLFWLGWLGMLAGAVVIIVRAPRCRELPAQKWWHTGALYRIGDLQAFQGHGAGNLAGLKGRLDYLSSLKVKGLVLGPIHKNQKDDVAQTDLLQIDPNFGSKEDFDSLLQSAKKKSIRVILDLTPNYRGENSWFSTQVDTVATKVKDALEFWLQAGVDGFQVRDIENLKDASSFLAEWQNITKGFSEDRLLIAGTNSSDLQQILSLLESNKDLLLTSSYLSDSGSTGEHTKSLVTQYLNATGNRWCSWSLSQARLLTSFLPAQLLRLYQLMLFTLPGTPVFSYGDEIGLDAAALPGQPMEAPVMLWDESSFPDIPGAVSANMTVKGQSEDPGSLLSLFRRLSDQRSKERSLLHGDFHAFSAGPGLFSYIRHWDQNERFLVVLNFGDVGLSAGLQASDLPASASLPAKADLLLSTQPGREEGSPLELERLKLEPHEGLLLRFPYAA

[2] = molecular target: T2, LAT1 (Homo sapiens, UniProt Q01650, F400V); test: inhibition of L-[…]Leu uptake in Xenopus oocytes; format: cell-based
T2 construct: gene SLC7A5; F400V LAT1 expressed in Xenopus oocytes; with CD98hc (4F2hc; SLC3A2)
T2 sequence (Q01650 whole entry F400V): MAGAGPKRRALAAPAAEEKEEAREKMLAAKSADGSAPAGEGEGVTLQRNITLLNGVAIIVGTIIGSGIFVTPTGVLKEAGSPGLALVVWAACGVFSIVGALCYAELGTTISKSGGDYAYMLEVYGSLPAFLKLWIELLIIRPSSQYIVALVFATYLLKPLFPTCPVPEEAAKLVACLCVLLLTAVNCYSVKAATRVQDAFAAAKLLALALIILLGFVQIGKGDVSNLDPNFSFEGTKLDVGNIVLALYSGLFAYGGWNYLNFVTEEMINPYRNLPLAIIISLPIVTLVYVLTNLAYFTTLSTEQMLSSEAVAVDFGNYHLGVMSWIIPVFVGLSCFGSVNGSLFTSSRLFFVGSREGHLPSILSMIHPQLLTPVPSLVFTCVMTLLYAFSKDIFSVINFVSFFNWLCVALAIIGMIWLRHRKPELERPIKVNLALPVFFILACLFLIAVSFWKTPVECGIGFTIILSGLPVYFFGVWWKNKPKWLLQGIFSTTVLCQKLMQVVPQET
T2 sequence (P08195 103-630 partner): as the sequence (P08195 103-630 partner) above

[3] = molecular target: T3, LAT1 (Homo sapiens, UniProt Q01650, F252W); test: inhibition of L-[…]Leu uptake in Xenopus oocytes; format: cell-based
T3 construct: gene SLC7A5; F252W LAT1 co-expressed with CD98hc in Xenopus oocytes; with CD98hc (4F2hc; SLC3A2)
T3 sequence (Q01650 whole entry F252W): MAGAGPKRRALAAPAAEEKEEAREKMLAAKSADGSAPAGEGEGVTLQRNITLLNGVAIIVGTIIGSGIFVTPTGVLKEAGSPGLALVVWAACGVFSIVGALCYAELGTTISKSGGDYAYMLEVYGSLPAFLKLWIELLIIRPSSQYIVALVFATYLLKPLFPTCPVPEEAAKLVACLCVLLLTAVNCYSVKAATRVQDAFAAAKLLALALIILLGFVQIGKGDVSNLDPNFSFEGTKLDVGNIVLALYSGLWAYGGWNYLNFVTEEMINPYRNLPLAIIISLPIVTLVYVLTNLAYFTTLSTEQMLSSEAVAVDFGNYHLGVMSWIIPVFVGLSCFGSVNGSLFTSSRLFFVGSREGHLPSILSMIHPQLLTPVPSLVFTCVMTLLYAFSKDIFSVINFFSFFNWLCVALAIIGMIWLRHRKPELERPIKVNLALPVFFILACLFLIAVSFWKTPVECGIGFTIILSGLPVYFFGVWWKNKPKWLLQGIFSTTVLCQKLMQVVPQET
T3 sequence (P08195 103-630 partner): as the sequence (P08195 103-630 partner) above

[4] = molecular target: T1, LAT1; test: cryo-EM structure in nanodiscs ([…] Å); IC50 from L-[…]Leu uptake in Xenopus oocytes; format: cell-based
[5] = molecular target: T1, LAT1; test: cryo-EM structure (outward-open, nanodisc)

Structure (SMILES): NC1(C(=O)O)CC2CCC1C2 (centres unmarked) [BCH, 2-aminobicyclo[2.2.1]heptane-2-carboxylic acid]
cryo-EM structure (3.7 Å, occluded); cis inhibition and counterflow assays in oo [1]: BCH is bound in the canonical substrate-binding pocket, with its carboxy and amino moieties recognized

pIC50 [3]: 7.44
pIC50 [4]: 6.27
Structure (SMILES): Nc1cc(COc2c(Cl)cc(C[C@H](N)C(=O)O)cc2Cl)c2oc(-c3ccccc3)nc2c1 [JPH203, (S)-2-amino-3-(4-((5-amino-2-phenylbenzo [d]oxazol-7-yl)methoxy)-3,5-dichlorophenyl) propanoic acid]
inhibition of L-[14C]Leu uptake in Xenopus oocytes [2]: the variant F400V retained its activity and was sensitive to JPH203

Structure (SMILES): N[C@@H](Cc1ccc(N(CCCl)CCCl)cc1)C(=O)O [melphalan]
cryo-EM structure (outward-open, nanodisc) [5]: bis-(2-chloroethyl)amino side group is placed in the space surrounded by TM3, TM6a and TM10
